Laboratory results taken from ChEMBL document CHEMBL5120864, “Targeting Enhancer of Zeste Homolog 2 for the Treatment of Hematological Malignancies and Solid Tumors: Candidate Structure-Activity Relationships Insights and Evolution Prospects” (J Med Chem, 2022).
pEC50, pIC50: −log10 of the molar value.

Columns and labels:
Pfeiffer = test: cells; assay type: functional, cell-based; details: Homo sapiens
[1] = target: T1, Histone-lysine N-methyltransferase EZH2 (Homo sapiens, UniProt Q15910)
[2] = target: Histone-lysine N-methyltransferase EZH2 (Homo sapiens, UniProt Q15910, Y641F)
[3] = target: T1, Histone-lysine N-methyltransferase EZH2; remark: listed apart in the source
SU-DHL-6 = test: cells; assay type: functional, cell-based; details: Homo sapiens
[4] = target: T1, Histone-lysine N-methyltransferase EZH2; remark: listed apart in the source
[5] = target: Histone-lysine N-methyltransferase EZH2 (Homo sapiens, UniProt Q15910, Y641N)
PC-3 = test: cells; assay type: functional, cell-based; details: Homo sapiens, PC-3, 24 h
HepG2 = test: cells; assay type: functional, cell-based; details: Homo sapiens, HepG2, 24 h
MCF7 = test: cells; assay type: functional, cell-based; details: Homo sapiens, MCF7, 24 h
[6] = target: T1, Histone-lysine N-methyltransferase EZH2; remark: listed apart in the source
KARPAS-422 = test: cells; assay type: functional; details: Homo sapiens
HeLa = test: cells; assay type: functional, cell-based; details: Homo sapiens
WSUDLCL2 = test: cells; assay type: functional, cell-based; details: Homo sapiens

Chain of Histone-lysine N-methyltransferase EZH2 (Homo sapiens, UniProt Q15910, Y641N) (Q15910 whole entry Y641N): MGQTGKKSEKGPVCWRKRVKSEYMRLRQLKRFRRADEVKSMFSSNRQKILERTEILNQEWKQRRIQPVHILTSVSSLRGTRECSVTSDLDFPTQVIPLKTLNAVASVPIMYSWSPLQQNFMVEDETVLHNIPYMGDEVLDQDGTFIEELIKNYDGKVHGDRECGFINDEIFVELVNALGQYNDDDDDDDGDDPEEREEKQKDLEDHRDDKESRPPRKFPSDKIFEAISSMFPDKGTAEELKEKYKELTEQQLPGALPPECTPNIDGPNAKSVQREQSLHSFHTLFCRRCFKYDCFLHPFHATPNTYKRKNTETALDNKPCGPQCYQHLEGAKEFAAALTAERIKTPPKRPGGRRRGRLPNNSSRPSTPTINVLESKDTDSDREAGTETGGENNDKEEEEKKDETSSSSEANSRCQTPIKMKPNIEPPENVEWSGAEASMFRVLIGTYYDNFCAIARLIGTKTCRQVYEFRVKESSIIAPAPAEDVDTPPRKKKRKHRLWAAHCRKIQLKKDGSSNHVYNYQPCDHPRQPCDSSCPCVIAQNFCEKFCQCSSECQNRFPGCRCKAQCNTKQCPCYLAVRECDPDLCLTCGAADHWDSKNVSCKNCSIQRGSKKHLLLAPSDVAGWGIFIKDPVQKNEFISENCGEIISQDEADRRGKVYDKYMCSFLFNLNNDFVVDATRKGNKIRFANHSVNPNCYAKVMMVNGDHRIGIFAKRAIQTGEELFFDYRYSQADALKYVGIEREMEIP
T1 sequence (Q15910 whole entry): as the sequence (Q15910 whole entry Y641N) above, with N641Y counted along it
Chain of Histone-lysine N-methyltransferase EZH2 (Homo sapiens, UniProt Q15910, Y641F) (Q15910 whole entry Y641F): as the sequence (Q15910 whole entry Y641N) above, with N641F counted along it

For `Cc1cc(C)c(CNC(=O)c2cc(-c3ccc(CN4CCN(C)CC4)cc3)cc3c2OCCN3C2CCCCC2)c(=O)[nH]1`, the pIC50 (Pfeiffer) was 5.38.

With `Cc1cc(C)c(CNC(=O)c2cc(-c3ccc(N4CCN(CCOCCC(=O)Nc5cccc6c5C(=O)N(C5CCC(=O)NC5=O)C6=O)CC4)nc3)c3c(cnn3C(C)C)c2)c(=O)[nH]1` (stereo not given) the pIC50 [1] was 8.15.

`C=CC(=O)Nc1nn(Cc2ccccc2)c(C)c1C(=O)NCc1c(C)cc(C)[nH]c1=O` was tested, and the pIC50 [1] was 5.28.

`CCN(c1cc(-c2cnc(N3CCN(C)CC3)nc2)cc2c(NCc3c(C)cc(C)[nH]c3=O)nccc12)[C@H]1CC[C@H](N(C)C)CC1` gave a pIC50 (Pfeiffer) of 6.60 and a pIC50 [2] of over 8.30.

For `CCC(C)n1cc(C)c2c(C(=O)NCC3=C(O)NN(CC)C3C)cc(-c3ccc(N4CCNCC4)nc3)cc21` (stereo not given), the pIC50 [3] was 6.64 and the pIC50 [2] was 5.83.

Compound `CCCc1cc(C)[nH]c(=O)c1CNC(=O)c1cc(-c2ccc(N3CCNCC3)cc2)cc2c1ccc(=O)n2C(CC)CC` has a pIC50 [3] of 7.96 and a pIC50 [2] of 8.05.

`[2H]C([2H])([2H])Sc1cc(C)[nH]c(=O)c1CNC(=O)c1c(C)n([C@H](C)C2CCC(OC)CC2)c2ccc(-c3cnn(C)c3)cc12` (stereo not given in full) showed a pIC50 [1] of 9.40 and a pIC50 (SU-DHL-6) of 7.15.

`[2H]C([2H])(NC(=O)c1c(C)n([C@H](C)C2CCC(OC)CC2)c2ccccc12)c1c(SC)cc(C)[nH]c1=O` (stereo not given in full) was tested, and the pIC50 [1] was 9.27 and the pIC50 (SU-DHL-6) was 8.00.

In the case of `CCN(c1cc(Cl)cc(C(=O)NCc2c[nH]c(C)cc2=O)c1C)[C@H]1CC[C@H](N(C)C)CC1`, the pIC50 [1] was 8.52.

With `CCN(c1cc(-c2ccc(CN3CCOCC3)cc2)cc(C(=O)NCC2C(=O)NC(C)c3cccc(F)c32)c1C)C1CCOCC1` (stereo not given) the pIC50 [4] was 6.30.

With `CCN(c1cc(C#CC2CCN(C)CC2)cc(C(=O)NCc2c(C)cc(C)[nH]c2=O)c1C)C1CCOCC1` the pIC50 [2] was 8.08.

For `CCN(c1cc(-c2ccc(CN3CCOCC3)cc2)cc(C(=O)NCc2c(Cl)cc(C)c[n+]2[O-])c1C)C1CCOCC1`, the pIC50 [1] was over 7.00.

Work on `C=CCC1(S(=O)(=O)N2CC(C)c3c(C(=O)NCc4c(C)cc(C)[nH]c4=O)cc(-c4ccc(N5CCN(C)CC5)nc4)cc32)CC1` (stereo not given) yielded a pIC50 [2] of 5.82 and a pIC50 [5] of 5.82.

`O=C1CCSC(c2ccc(Cl)cc2)N1Nc1nc2ccccc2[nH]1` (stereo not given) was tested, and the pIC50 (PC-3) was 4.17, the pIC50 (HepG2) was 4.27 and the pIC50 (MCF7) was 4.13.

`CCN(c1cc(Br)cc(C(=O)NCc2c[nH]c(C)cc2=O)c1C)[C@H]1CC[C@H](N(C)C)CC1` was tested, and the pIC50 [1] was 7.40.

Work on `Cc1cc(C)c(CNC(=O)c2cnn(C(C)C)c2C)c(=O)[nH]1` yielded a pIC50 [6] of 3.47.

In the case of `C=CC(=O)Nc1nn(Cc2ccc(-c3ccccc3)cc2)c(C)c1C(=O)NCc1c(C)cc(C)[nH]c1=O`, the pIC50 [1] was 6.96.

In the case of `C=CCC1(S(=O)(=O)n2cc(C)c3c(C(=O)NCc4c(OC)cc(C)[nH]c4=O)cc(-c4ccc(N5CCN(C)CC5)nc4)cc32)CC1`, the pIC50 [2] was 8.30 and the pIC50 [5] was 4.57.

`C=CCC1(S(=O)(=O)n2nc(C)c3c(C(=O)NCc4c(C)cc(C)[nH]c4=O)cc(-c4ccc(N5CCN(C)CC5)nc4)cc32)CC1` gave a pIC50 [2] of 6.23 and a pIC50 [5] of 5.55.

For `CCc1c(C(=O)NCc2c(C)cc(C)[nH]c2=O)cc2c(cnn2C)c1N(CC)[C@H]1CC[C@H](N2CC(OC)C2)CC1`, the pIC50 (Pfeiffer) was 7.12.

With `CCN(c1cc(-c2ccc(CN3CCOCC3)cc2)cc(C(=O)NCc2c3c(c(C)[nH]c2=O)CCCC3)c1C)C1CCOCC1` the pIC50 (Pfeiffer) was 4.71 and the pIC50 (SU-DHL-6) was 4.70.

Compound `Cc1cc2c(c(=O)[nH]1)CNC(=O)c1cc(Cl)cc3c1c(cn3C(C)C)/C=C/CC2` has a pIC50 [1] of 7.40.

In the case of `CCN(c1cc(C(=O)NCc2c(OC)cc(C)[nH]c2=O)nc2c(-c3ccnc(N(C)C)c3)cnn12)C1CCOCC1`, the pIC50 [2] was at least 7.00.

With `CCN(c1cc(C(=O)NCc2c(OC)cc(C)[nH]c2=O)nc2c(-c3ccnc(NC)c3)cnn12)C1CCN(CC(F)(F)F)CC1` the pIC50 [2] was at least 7.00.

Compound `C=CCC1(S(=O)(=O)N2CCc3c(C(=O)NCc4c(C)cc(C)[nH]c4=O)cc(-c4ccc(N5CCN(C)CC5)nc4)cc32)CC1` has a pIC50 [2] of 5.59 and a pIC50 [5] of 5.59.

Work on `Cc1cc(C)c(CNC(=O)c2cc(Br)c3c(c2C)O[C@@](C)([C@H]2CC[C@H](N(C)C)CC2)O3)c(=O)[nH]1` yielded a GI50 (KARPAS-422) of 4 nM.

Work on `O=C1CCSC(c2ccc([N+](=O)[O-])cc2)N1Nc1nc2ccccc2[nH]1` (stereo not given) yielded a pIC50 (PC-3) of 4.19, a pIC50 (HepG2) of 4.25 and a pIC50 (MCF7) of 4.32.

Compound `CCN(c1cc(-c2ccc(CN3CCOCC3)cc2)cc(C(=O)NCc2c3c(c(C)[nH]c2=O)CCCCC3)c1C)C1CCOCC1` has a pIC50 (Pfeiffer) of 4.57 and a pIC50 (SU-DHL-6) of under 4.52.

`Cc1cc(Cl)c(CNC(=O)c2cc(Cl)c3c(c2C)OC(C)(C2CCC(N4CC(OC5CC5)C4)CC2)O3)c(=O)[nH]1` (stereo not given) gave a pEC50 (HeLa) of 9.28 and a GI50 (KARPAS-422) of 5 nM.

Work on `CCN(c1cc(-c2ccc(CN3CCOCC3)cc2)cc(C(=O)NCc2c3c(c(C)[nH]c2=O)CCCCCC3)c1C)C1CCOCC1` yielded a pIC50 (Pfeiffer) of 4.68 and a pIC50 (SU-DHL-6) of under 4.52.

Work on `Cc1cc(-c2ccc(N3CCN(C)CC3)nc2)c2ccc(C(=O)NCc3c(OC(C)C)cc(C)[nH]c3=O)c(C)c2n1` yielded a pIC50 [3] of 8.89 and a pIC50 [2] of 7.89.

Compound `CSc1cc(C)[nH]c(=O)c1CN1CCc2c(Cl)c3c(c(C)c2C1=O)O[C@@](C)([C@H]1CC[C@H](N(C)C)CC1)O3` has a pEC50 (HeLa) of 9.07 and a GI50 (KARPAS-422) of 5.7 nM.

`Cc1cc(C)c(CNC(=O)c2cc(Cl)c3c(c2C)O[C@@](C)([C@H]2CC[C@H](N(C)C)CC2)O3)c(=O)[nH]1` [VALEMETOSTAT] showed a GI50 (KARPAS-422) of 4.8 nM.

Compound `C=CC(=O)Nc1nn(C(C)c2ccccc2)c(C)c1C(=O)NCc1c(C)cc(C)[nH]c1=O` (stereo not given) has a pIC50 [1] of 7.19.

`O=C1CCSC(c2ccccc2Cl)N1Nc1nc2ccccc2[nH]1` (stereo not given) was tested, and the pIC50 (PC-3) was 5.03, the pIC50 (HepG2) was 4.87 and the pIC50 (MCF7) was 4.69.

`CCN(c1cc(Cl)cc2c1C/C=C/CCc1cc(C)[nH]c(=O)c1CNC2=O)C1CCC(F)(F)CC1` showed a pIC50 [1] of 7.80.

`COc1ccc(C2SCCC(=O)N2Nc2nc3cc(Cl)c(Cl)cc3[nH]2)cc1` (stereo not given) gave a pIC50 (PC-3) of 4.14, a pIC50 (HepG2) of 4.16 and a pIC50 (MCF7) of 4.11.

Work on `CCCc1cc(C)[nH]c(=O)c1CNC(=O)c1cc(-c2ccc(N3CCOCC3)nc2)c2ccn(C(C)C)c2c1C` yielded a pIC50 [1] of 11.00.

`COC1CN([C@H]2CC[C@H]([C@@H](C)c3sc4c(c3C)C(=O)N(Cc3c(C)cc(C)[nH]c3=O)CCC4)CC2)C1` gave a pIC50 [3] of 11.01, a pIC50 [4] of 8.58 and a pIC50 [2] of 9.04.

`Cc1cc(C)c(CN2CCc3c(Br)c4c(c(C)c3C2=O)OC(C)([C@H]2CC[C@H](N(C)C)CC2)O4)c(=O)[nH]1` (stereo not given in full) gave a GI50 (Pfeiffer) of 0.21 nM and a GI50 (KARPAS-422) of 1.2 nM.

In the case of `CSc1cc(C)[nH]c(=O)c1CNC(=O)c1cc(Cl)c2c(c1C)O[C@@](C)([C@H]1CC[C@H](N(C)C)CC1)O2`, the pEC50 (HeLa) was 9.29 and the GI50 (KARPAS-422) was 4 nM.

`COc1cc(C)[nH]c(=O)c1CNC(=O)c1c(C)n([C@H](C)C2CCN(CC(C)(F)F)CC2)c2ccccc12` gave a pIC50 [3] of over 9.00 and a pIC50 [2] of over 9.00.

Work on `Cc1cc(C)c(CNC(=O)c2cnn(-c3ccccc3)c2)c(=O)[nH]1` yielded a pIC50 [6] of under 3.40.

In the case of `Cc1cc(C)c(CNC(=O)c2cc3c(c(-c4ccc(N5CCNCC5)cc4)c2)OC(C)(C)C3)c(=O)[nH]1`, the pIC50 [1] was over 6.30.

For `CCCc1cc(C)[nH]c(=O)c1CNC(=O)c1cc(-c2ccc(N3CCNCC3)nc2)cc2c([C@H](C)CC)ncn12`, the pIC50 [3] was 7.12 and the pIC50 [2] was 8.09.

For `CCN(c1cc(C#CCN2CCOCC2)cc(C(=O)NCc2c(C)cc(C)[nH]c2=O)c1C)[C@H]1CC[C@H](N(C)CCOC)CC1`, the pIC50 (WSUDLCL2) was 6.41.

For `COc1ccc(C2SCCC(=O)N2Nc2nc3cc(C)c(C)cc3[nH]2)cc1` (stereo not given), the pIC50 (PC-3) was 4.18, the pIC50 (HepG2) was 4.17 and the pIC50 (MCF7) was 4.22.

`CCCc1cc(C)n(C)c(=O)c1CN(C)C(=O)c1cc(-c2ccc(N3CCN(C(C)C)CC3)nc2)cc2c1CNN2C(C)C` was tested, and the pIC50 [1] was 4.89.

With `CC1=CCOc2c(Br)cc(C(=O)NCc3c(C)cc(C)[nH]c3=O)cc2C1` the pIC50 [1] was under 6.00.
